Measurements reported in patent US20190030114A1, “ISOFORM-SPECIFIC CALPAIN INHIBITORS, METHODS OF IDENTIFICATION, AND USES THEREOF” (WESTERN UNIVERSITY OF HEALTH SCIENCES, priority 2014, published 2019).
Where two headings read alike, the source gives them in different places.

Assays:
[1] = tested on: field CA1 in acute hippocampal slices from male UBEA mutant mice; test: field EPSP recording, LTP in hippocampal slices from UBEA mutant mice (Angelman Syndrome model); type: cell-based; details: 200 nM
Protocol: FIG. 4: Field recording of excitatory postsynaptic potentials (EPSPs) performed in stratum radiatum of field CA1 in acute hippocampal slices prepared from male UBEA mutant mice (a model of Angelman Syndrome) or their wild-type littermates in the presence or absence of 200 nM of the calpain-2 selective inhibitor, Formula I (mCalp-I in the drawing). Results are expressed as percent of the average values over a 10 min baseline period and are means±S.E.M. of the indicated number of experiments.
A calpain 2-specific inhibitor rescues LTP impairment in hippocampal slices from a mouse model of Angelman Syndrome. Field recording of excitatory postsynaptic potentials (EPSPs) was performed in stratum radiatum of field CA1 in acute hippocampal slices prepared from male UBEA mutant mice or their wild-type littermates.

[2] = biological target: T1, calpain-1 (Homo sapiens, UniProt P07384); test: in vitro calpain-1 inhibition, succinic-Leu-Tyr-AMC substrate; type: biochemical
T1 sequence (P07384 1-714): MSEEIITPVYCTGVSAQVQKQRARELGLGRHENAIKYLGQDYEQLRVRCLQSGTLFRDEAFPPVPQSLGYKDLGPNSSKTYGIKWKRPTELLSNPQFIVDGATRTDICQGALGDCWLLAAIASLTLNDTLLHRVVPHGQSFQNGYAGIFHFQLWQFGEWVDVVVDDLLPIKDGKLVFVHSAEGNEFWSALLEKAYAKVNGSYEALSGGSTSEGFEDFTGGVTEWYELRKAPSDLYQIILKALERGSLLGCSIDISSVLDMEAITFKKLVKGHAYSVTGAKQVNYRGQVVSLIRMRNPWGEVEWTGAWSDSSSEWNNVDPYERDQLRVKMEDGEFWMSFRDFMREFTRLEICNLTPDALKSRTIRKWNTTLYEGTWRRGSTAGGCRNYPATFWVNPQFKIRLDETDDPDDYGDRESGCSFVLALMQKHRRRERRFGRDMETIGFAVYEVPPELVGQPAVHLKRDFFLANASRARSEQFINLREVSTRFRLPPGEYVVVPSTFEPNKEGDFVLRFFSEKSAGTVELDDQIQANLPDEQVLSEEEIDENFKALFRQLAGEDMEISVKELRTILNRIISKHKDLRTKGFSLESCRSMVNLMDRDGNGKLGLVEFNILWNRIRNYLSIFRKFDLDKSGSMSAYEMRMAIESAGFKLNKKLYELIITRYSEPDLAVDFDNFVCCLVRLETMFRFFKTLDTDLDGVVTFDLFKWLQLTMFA
T1 sequence (P04632 1-268 partner): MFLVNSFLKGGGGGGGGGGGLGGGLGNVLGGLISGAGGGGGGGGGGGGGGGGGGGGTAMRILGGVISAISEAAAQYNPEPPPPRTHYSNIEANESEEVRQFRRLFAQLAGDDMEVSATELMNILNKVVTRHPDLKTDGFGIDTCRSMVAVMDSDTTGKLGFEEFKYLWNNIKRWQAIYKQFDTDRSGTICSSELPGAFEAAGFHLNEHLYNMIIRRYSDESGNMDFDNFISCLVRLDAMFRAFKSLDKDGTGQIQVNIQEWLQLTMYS
Protocol: (§1) Formula 1, where chiral center 1 is the L-form and chiral center 2 is a racemic mixture of D- and L- in this example was introduced at various concentrations (from 1 nM to 10 μM) into an in vitro mix comprising succinic-Leu-Tyr-AMC and calpain-1 or calpain-2 (Sasaki et al, 1984), and the kinetics of the loss of fluorescence were determined for each of the calpains (Powers et al, 2000). […] Therefore, the assessment of selectivity described herein was different than the prior teaching.
(§2) Formula 1A, where chiral center 1 is the S-form and chiral center 2 is the S-form was separated from the S-R-form (Formula 1B) using methods that are well-known methods for separating diastereoisomers. Formula 1A, which is also referred to herein as compound 18A, in this example was introduced at various concentrations into an in vitro mix comprising succinic-Leu-Tyr-AMC and μ-calpain or m-calpain (Sasaki et al, 1984), and the kinetics of the loss of fluorescence were determined for each of the calpains.

[3] = biological target: T2, calpain-2 (Homo sapiens, UniProt P17655); test: in vitro calpain-2 inhibition, succinic-Leu-Tyr-AMC substrate; type: biochemical
T2 sequence (P17655 1-700): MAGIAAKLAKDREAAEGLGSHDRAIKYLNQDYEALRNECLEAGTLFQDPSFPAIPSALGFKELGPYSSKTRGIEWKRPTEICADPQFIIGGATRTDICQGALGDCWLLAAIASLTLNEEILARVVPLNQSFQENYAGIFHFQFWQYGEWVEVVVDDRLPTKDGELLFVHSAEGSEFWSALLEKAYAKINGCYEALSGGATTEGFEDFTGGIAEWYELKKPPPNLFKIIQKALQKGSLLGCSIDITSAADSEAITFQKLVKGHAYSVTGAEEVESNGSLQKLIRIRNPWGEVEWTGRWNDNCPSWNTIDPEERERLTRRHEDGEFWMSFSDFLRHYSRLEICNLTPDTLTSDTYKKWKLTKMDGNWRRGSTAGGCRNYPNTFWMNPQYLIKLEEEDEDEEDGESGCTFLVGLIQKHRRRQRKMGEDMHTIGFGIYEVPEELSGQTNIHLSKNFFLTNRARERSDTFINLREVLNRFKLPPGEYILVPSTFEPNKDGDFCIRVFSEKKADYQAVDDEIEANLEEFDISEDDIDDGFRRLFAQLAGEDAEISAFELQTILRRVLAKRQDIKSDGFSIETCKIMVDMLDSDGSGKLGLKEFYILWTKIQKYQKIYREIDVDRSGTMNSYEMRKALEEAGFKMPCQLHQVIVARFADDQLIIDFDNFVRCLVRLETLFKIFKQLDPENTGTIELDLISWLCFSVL
T2 sequence (P04632 1-268 partner): T1 sequence (P04632 1-268 partner)
Protocol: as §1, §2

In the case of `CCC(NC(=O)C(CC(C)C)NC(=O)OCc1ccccc1)C(=O)C(=O)NCc1cc(OC)cc(OC)c1` (racemic) [Formula 1, Z-Leu-Abu-CONH—CH2-C6H3 (3, 5-(OMe)2)], the “LTP magnitude in slices from UBEA mutant mice” value [1] is reported as “restored LTP magnitude to the level found in slices from wild-type mice”, the “initial increase in fEPSP elicited by TBS” value [1] is reported as “no effect” and the Ki ([2]; Example 1, chiral center 2 racemic, read-out: Ki of calpain-1, re-determined herein) is reported as 1.29 µM. The Ki ([2]; Example 13, n = 3-5, read-out: Ki Calpain-1) was 0.662 µM, the Ki ([2]; earlier value, unit inferred, read-out: Previous Value (Calpain-1)) was 0.94 µM and the IC50 ([2]; n = 3-5) was 0.91 µM. The “Ratio KiCalpain-1/KiCalpain-2” value [3] was 31.1, the Ki ([3]; Example 1, chiral center 2 racemic, read-out: Ki for calpain-2, determined herein) was 0.025 µM and the Ki ([3]; Example 13, n = 3-4, read-out: Ki Calpain-2) was 0.0213 µM. The IC50 ([3]; n = 3-4) was 0.21 µM.
